Measured values published in PubChem BioAssay (NCI).
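The compound was tested at five concentrations on cells cultured in 96-well plates, with a 48-hour exposure period. Definition used: TGI = concentration required for complete inhibition of growth.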

Legend:
Assay in all cases: NCI anticancer screen, dose series, 48 h
786-0 renal = test system: 786-0 renal
A498 renal = test system: A498 renal
A549 NSCLC = test system: A549 NSCLC
ACHN renal = test system: ACHN renal
BT-549 breast = test system: BT-549 breast
CAKI-1 renal = test system: CAKI-1 renal
CCRF-CEM leukemia = test system: CCRF-CEM leukemia
COLO 205 colon = test system: COLO 205 colon
DU-145 prostate = test system: DU-145 prostate
EKVX NSCLC = test system: EKVX NSCLC
HCC-2998 colon = test system: HCC-2998 colon
HCT-116 colon = test system: HCT-116 colon
HOP-62 NSCLC = test system: HOP-62 NSCLC
HOP-92 NSCLC = test system: HOP-92 NSCLC
HS 578T breast = test system: HS 578T breast
HT29 colon = test system: HT29 colon
IGROV1 ovarian = test system: IGROV1 ovarian
K-562 leukemia = test system: K-562 leukemia
KM12 colon = test system: KM12 colon
LOX IMVI melanoma = test system: LOX IMVI melanoma
M14 melanoma = test system: M14 melanoma
MALME-3M melanoma = test system: MALME-3M melanoma
MCF7 breast = test system: MCF7 breast
MDA-MB-231 breast = test system: MDA-MB-231 breast
MDA-N = test system: MDA-N
MOLT-4 leukemia = test system: MOLT-4 leukemia
NCI-H226 lung = test system: NCI-H226 lung
NCI-H23 lung = test system: NCI-H23 lung
NCI-H460 lung = test system: NCI-H460 lung
NCI-H522 lung = test system: NCI-H522 lung
NCI/ADR-RES ovarian = test system: NCI/ADR-RES ovarian
OVCAR-3 ovarian = test system: OVCAR-3 ovarian
OVCAR-4 ovarian = test system: OVCAR-4 ovarian
OVCAR-5 ovarian = test system: OVCAR-5 ovarian
OVCAR-8 ovarian = test system: OVCAR-8 ovarian
PC-3 prostate = test system: PC-3 prostate
RXF 393 renal = test system: RXF 393 renal
SF-268 CNS = test system: SF-268 CNS
SF-295 CNS = test system: SF-295 CNS
SF-539 CNS = test system: SF-539 CNS
SK-MEL-2 melanoma = test system: SK-MEL-2 melanoma
SK-MEL-28 melanoma = test system: SK-MEL-28 melanoma
SN12C renal = test system: SN12C renal
SNB-19 CNS = test system: SNB-19 CNS
SR leukemia = test system: SR leukemia
SW-620 colon = test system: SW-620 colon
T-47D breast = test system: T-47D breast
TK-10 renal = test system: TK-10 renal
U251 CNS = test system: U251 CNS
UACC-257 melanoma = test system: UACC-257 melanoma
UO-31 renal = test system: UO-31 renal
HCT-15 colon = test system: HCT-15 colon
HL-60(TB) leukemia = test system: HL-60(TB) leukemia
MDA-MB-435 = test system: MDA-MB-435
RPMI-8226 leukemia = test system: RPMI-8226 leukemia
SK-MEL-5 melanoma = test system: SK-MEL-5 melanoma
SK-OV-3 ovarian = test system: SK-OV-3 ovarian
SNB-75 CNS = test system: SNB-75 CNS
UACC-62 melanoma = test system: UACC-62 melanoma

Structure (SMILES): COc1cc(C2CC(C)(N3CCCC3)Oc3cc4c(cc32)OCO4)cc(OC)c1OC (centres undefined)
- TGI (786-0 renal): 17 µM
- TGI (A498 renal): 6.12 µM
- TGI (A549 NSCLC): > 100 µM
- TGI (ACHN renal): > 100 µM
- TGI (BT-549 breast): 87.7 µM
- TGI (CAKI-1 renal): > 100 µM
- TGI (CCRF-CEM leukemia): > 100 µM
- TGI (COLO 205 colon): > 100 µM
- TGI (DU-145 prostate): > 100 µM
- TGI (EKVX NSCLC): > 100 µM
- TGI (HCC-2998 colon): 6.14 µM
- TGI (HCT-116 colon): > 100 µM
- TGI (HOP-62 NSCLC): > 100 µM
- TGI (HOP-92 NSCLC): > 100 µM
- TGI (HS 578T breast): > 100 µM
- TGI (HT29 colon): 0.492 µM
- TGI (IGROV1 ovarian): > 51.2 µM
- TGI (K-562 leukemia): 10.9 µM
- TGI (KM12 colon): > 100 µM
- TGI (LOX IMVI melanoma): 15 µM
- TGI (M14 melanoma): > 100 µM
- TGI (MALME-3M melanoma): > 50.7 µM
- TGI (MCF7 breast): 17.9 µM
- TGI (MDA-MB-231 breast): 21.9 µM
- TGI (MDA-N): 0.0552 µM
- TGI (MOLT-4 leukemia): > 49.3 µM
- TGI (NCI-H226 lung): > 82.4 µM
- TGI (NCI-H23 lung): > 49.6 µM
- TGI (NCI-H460 lung): 3.5 µM
- TGI (NCI-H522 lung): 2.19 µM
- TGI (NCI/ADR-RES ovarian): > 100 µM
- TGI (OVCAR-3 ovarian): 45 µM
- TGI (OVCAR-4 ovarian): > 100 µM
- TGI (OVCAR-5 ovarian): > 100 µM
- TGI (OVCAR-8 ovarian): > 44.7 µM
- TGI (PC-3 prostate): 3.55 µM
- TGI (RXF 393 renal): 0.468 µM
- TGI (SF-268 CNS): > 87.6 µM
- TGI (SF-295 CNS): 0.0909 µM
- TGI (SF-539 CNS): 0.603 µM
- TGI (SK-MEL-2 melanoma): > 100 µM
- TGI (SK-MEL-28 melanoma): 73.8 µM
- TGI (SN12C renal): 43.7 µM
- TGI (SNB-19 CNS): > 100 µM
- TGI (SR leukemia): > 100 µM
- TGI (SW-620 colon): 39 µM
- TGI (T-47D breast): > 100 µM
- TGI (TK-10 renal): > 64 µM
- TGI (U251 CNS): 16.4 µM
- TGI (UACC-257 melanoma): 32.5 µM
- TGI (UO-31 renal): > 100 µM

Structure (SMILES): C[C@]12CC[C@@H]3c4ccc(OS(N)(=O)=O)cc4CC[C@H]3[C@@H]1CCC2=O
- TGI (786-0 renal): > 100 µM
- TGI (A498 renal): > 100 µM
- TGI (A549 NSCLC): > 100 µM
- TGI (ACHN renal): > 100 µM
- TGI (BT-549 breast): > 100 µM
- TGI (CAKI-1 renal): > 100 µM
- TGI (CCRF-CEM leukemia): > 100 µM
- TGI (COLO 205 colon): > 100 µM
- TGI (DU-145 prostate): > 100 µM
- TGI (EKVX NSCLC): > 100 µM
- TGI (HCC-2998 colon): > 100 µM
- TGI (HCT-116 colon): > 100 µM
- TGI (HCT-15 colon): > 100 µM
- TGI (HL-60(TB) leukemia): > 100 µM
- TGI (HOP-62 NSCLC): > 100 µM
- TGI (HOP-92 NSCLC): > 100 µM
- TGI (HS 578T breast): > 100 µM
- TGI (HT29 colon): > 100 µM
- TGI (IGROV1 ovarian): > 100 µM
- TGI (K-562 leukemia): > 100 µM
- TGI (KM12 colon): > 100 µM
- TGI (LOX IMVI melanoma): > 100 µM
- TGI (M14 melanoma): > 100 µM
- TGI (MALME-3M melanoma): > 100 µM
- TGI (MCF7 breast): > 100 µM
- TGI (MDA-MB-231 breast): > 100 µM
- TGI (MDA-MB-435): > 100 µM
- TGI (MDA-N): > 100 µM
- TGI (NCI-H226 lung): > 100 µM
- TGI (NCI-H23 lung): > 100 µM
- TGI (NCI-H460 lung): > 100 µM
- TGI (NCI/ADR-RES ovarian): > 100 µM
- TGI (OVCAR-3 ovarian): > 100 µM
- TGI (OVCAR-4 ovarian): > 100 µM
- TGI (OVCAR-5 ovarian): > 100 µM
- TGI (OVCAR-8 ovarian): > 100 µM
- TGI (RPMI-8226 leukemia): > 100 µM
- TGI (RXF 393 renal): > 100 µM
- TGI (SF-268 CNS): > 100 µM
- TGI (SF-295 CNS): > 100 µM
- TGI (SF-539 CNS): > 100 µM
- TGI (SK-MEL-2 melanoma): > 100 µM
- TGI (SK-MEL-28 melanoma): > 100 µM
- TGI (SK-MEL-5 melanoma): 38.8 µM
- TGI (SK-OV-3 ovarian): > 100 µM
- TGI (SN12C renal): > 100 µM
- TGI (SNB-19 CNS): > 100 µM
- TGI (SNB-75 CNS): > 100 µM
- TGI (SW-620 colon): > 100 µM
- TGI (T-47D breast): > 100 µM
- TGI (TK-10 renal): > 100 µM
- TGI (U251 CNS): > 100 µM
- TGI (UACC-257 melanoma): > 100 µM
- TGI (UACC-62 melanoma): > 100 µM
- TGI (UO-31 renal): > 100 µM

Structure (SMILES): COC(=O)c1ccccc1C1CN=NC12Cc1c(C)cccc1C2=O (centres undefined)
- TGI (786-0 renal): > 100 µM
- TGI (A498 renal): > 100 µM
- TGI (A549 NSCLC): > 100 µM
- TGI (ACHN renal): > 100 µM
- TGI (BT-549 breast): > 100 µM
- TGI (CAKI-1 renal): > 100 µM
- TGI (CCRF-CEM leukemia): > 100 µM
- TGI (COLO 205 colon): > 100 µM
- TGI (DU-145 prostate): > 100 µM
- TGI (EKVX NSCLC): > 100 µM
- TGI (HCC-2998 colon): > 100 µM
- TGI (HCT-116 colon): > 100 µM
- TGI (HCT-15 colon): > 100 µM
- TGI (HL-60(TB) leukemia): > 100 µM
- TGI (HOP-62 NSCLC): > 100 µM
- TGI (HOP-92 NSCLC): > 100 µM
- TGI (HS 578T breast): > 100 µM
- TGI (HT29 colon): > 100 µM
- TGI (IGROV1 ovarian): > 100 µM
- TGI (K-562 leukemia): > 100 µM
- TGI (KM12 colon): > 100 µM
- TGI (LOX IMVI melanoma): > 100 µM
- TGI (M14 melanoma): > 100 µM
- TGI (MALME-3M melanoma): > 100 µM
- TGI (MCF7 breast): > 100 µM
- TGI (MDA-MB-231 breast): > 100 µM
- TGI (MDA-MB-435): > 100 µM
- TGI (MDA-N): > 100 µM
- TGI (MOLT-4 leukemia): > 100 µM
- TGI (NCI-H226 lung): > 100 µM
- TGI (NCI-H23 lung): > 100 µM
- TGI (NCI-H460 lung): > 100 µM
- TGI (NCI-H522 lung): > 100 µM
- TGI (NCI/ADR-RES ovarian): > 100 µM
- TGI (OVCAR-3 ovarian): > 100 µM
- TGI (OVCAR-4 ovarian): > 100 µM
- TGI (OVCAR-5 ovarian): > 100 µM
- TGI (OVCAR-8 ovarian): > 100 µM
- TGI (RPMI-8226 leukemia): > 100 µM
- TGI (RXF 393 renal): > 100 µM
- TGI (SF-268 CNS): > 100 µM
- TGI (SF-295 CNS): > 100 µM
- TGI (SF-539 CNS): > 100 µM
- TGI (SK-MEL-2 melanoma): > 100 µM
- TGI (SK-MEL-28 melanoma): > 100 µM
- TGI (SK-MEL-5 melanoma): > 100 µM
- TGI (SK-OV-3 ovarian): > 100 µM
- TGI (SN12C renal): > 100 µM
- TGI (SNB-19 CNS): > 100 µM
- TGI (SNB-75 CNS): > 100 µM
- TGI (SR leukemia): > 100 µM
- TGI (SW-620 colon): > 100 µM
- TGI (T-47D breast): > 100 µM
- TGI (TK-10 renal): > 100 µM
- TGI (U251 CNS): > 100 µM
- TGI (UACC-257 melanoma): > 100 µM
- TGI (UACC-62 melanoma): > 100 µM
- TGI (UO-31 renal): > 100 µM
